We go through one compound from US8470534B2, “Methods of predicting resistance or sensitivity to therapies for cancer” (priority 2006, dated 2013).

This experiment has as its system MCF7, T47D, and Zr-75-1 cells. Nature of the experiment: BrdU incorporation under hormone deprivation / antiestrogen (CDT, CDT/Tam, CDT/ICI). It counts as cell-based, human. As to the method:
To understand the impact of RB deficiency on the response to hormone deprivation therapy, cells are cultured in CDT, CDT/Tam, or in the presence of pure antiestrogen, ICI182780 (CDT/ICI). Following treatment with these modalities, cells are labeled with BrdU to determine the influence of each agent on cell-cycle progression and the corresponding influence of RB knockdown on this response (FIG. 4B). These experiments are recapitulated in the polyclonal populations of T47D and Zr-75-1 donor and siRb88 cells (FIG. 4C). […] To elucidate the long-term growth effects of these therapies, cell proliferation assays are performed over 9 days. RB-proficient and -deficient MCF7 cells are seeded at equal densities and cultured in CDT/Tam (FIG. 4D). […] Similar results are evident in the same experiments with both T47D and Zr-75-1 RB-proficient and -deficient polyclonal pools (FIG. 4E).
RB target gene upregulation is a prognostic indicator in human breast cancers. RB performs a myriad of functions, the most well understood being repression of the E2F family of transcription factors. To determine the specific influence of the E2F axis on bypassing therapy, an activator E2F is overexpressed in wild-type MCF7 cells. Specifically, cells are infected either with an adenovirus encoding E2F3 (ad-E2F3) or a control virus (Ad-LacZ) and are harvested 3 days after infection for immunoblot analysis of levels of known RB-E2F targets (FIG. 5A). […] As expected, no changes are detected in RB levels, and CDK4 serves as a loading control. In order to assess the response to therapeutic intervention, 3 days after infection Ad-E2F3- or AdLacZ-infected MCF7 cells are separated into 2 major treatment groups: hormone therapy and DNA damage therapy. The estrogen ablation group is then cultured in the absence of estrogen and in the presence of Tam and ICI as described above. Alternatively, the cells in the DNA damage therapy group are treated with 16 μM CDDP for 18 hours prior to washing or treatment with 5 Gy IR. Cells from both therapy groups are BrdU labeled, and the replicative fraction of treated cells is determined with respect to untreated control cells (FIG. 5B).
To study the effect of estrogen depletion, cells are cultured for 72 hours in phenol red-free DMEM supplemented with 10% CDT serum with addition of 10^−9 M 4-HydroxyTam or 10^−6 M ICI where indicated. Cell growth assays are performed by trypsinizing cells and counting by trypan blue exclusion every 3 days.
Cells treated with IR are exposed to ^137Cs (dose rate: 0.67 Gy/min) at room temperature in tissue culture media. Culture with clinical grade CDDP for 18 hours is performed for all CDDP treatments. For all proliferation studies, cells are labeled with BrdU for 10 hours or 5 hours for LXSN/LXSN-p53dd infected cells, and BrdU immunofluorescence is performed as previously described. All BrdU results are expressed as a percentage of untreated control cells set to 100%, unless otherwise noted.

Regarding `CC/C(=C(\c1ccccc1)c1ccc(OCCN(C)C)cc1)c1ccccc1` [Tam, tamoxifen], where the note is “Ad-E2F3-infected versus control infected MCF7 cells, absence of estrogen plus agent”, the “cell-cycle arrest (replicative fraction, BrdU)” value is “significantly reduced levels of cell-cycle arrest”. In addition, the “cell-cycle inhibition by the agent (BrdU labeling)” value (RB-depleted cells (MCF7 siRb28, T47D and Zr-75-1 siRb88), CDT serum plus agent, 3 days) was “significantly reduced”. In addition, the “cell-cycle progression (BrdU labeling)” value (cells harboring functional RB (MCF7, T47D, Zr-75-1 donor), CDT serum plus agent, 3 days, 10^−9 M 4-HydroxyTam or 10^−6 M ICI) is recorded as “elicit cell-cycle inhibition”.
